We go through one compound from paper PMC12024912, “Druggability Studies of Benzene Sulfonamide Substituted Diarylamide (E3) as a Novel Diuretic” (Biomedicines, 2025).

Each structure is given as a SMILES string.

The nature of series [1]: Blood stability, mouse. It counts as in vitro ADME. As to conditions: plasma, n=3. How it is done:
(§1) Plasma from mice, rats, rabbits, and humans was obtained from blood after centrifugation at 3000 r/min for 10 min. Simulated gastric fluid (SGF, pH = 1, containing pepsin) and simulated intestinal fluid (SIF, pH = 6.8, containing trypsin) were configured previously in the experiments. SD rats and mice were collected, and after removing the mucus layer from the small intestine and colon, 20 times the volume of liquid bacterial culture medium was added. An intestinal microbiota suspension was obtained after anaerobic cultivation on a shaking table at 37 °C for 12 h. In the aforementioned systems, E3 was added at a final concentration of 1 μmol/L at 37 °C for different incubation times (0, 10, 20, 30, 60, 120, and 240 min). In liver metabolic stability assays, E3 was incubated with liver microsomes or liver homogenate from mice or rats for 60 min at 37 °C. The stop solution, 5 ng/mL tolbutamide (internal standard, IS) in acetonitrile, was added to stop the metabolic process. Post-centrifugation (18,000× g, 10 min, 4 °C), supernatants were subjected to liquid chromatography–tandem mass spectrometry (LC–MS/MS). Analyte-to-IS peak area ratios quantified residual percentages via Equation (2):Remaining% = (E3peak area/ISpeak area at different time)/(E3peak area/ISpeak area at 0 min) × 100%.(2)

Series [2] is described as follows: Liver microsome metabolic stability, mouse. It counts as in vitro ADME. The note with it: 60 min incubation, 37 °C. How it is done:
as §1

In series [3] the test system is mice. Nature of the series: Long-term (7 d) diuretic activity in mice. It counts as in vivo, mouse. How it is done:
In a single-dose administration experiment, male wild-type (WT) mice, UT-B^-/- mice, UT-A1^-/- mice, or SD rats were adapted in metabolic cages for 3 d. Food and water were provided ad libitum throughout the experiment. Prior to administration, the bladder of each animal was emptied through gentle abdominal massage, and urine was collected from the metabolic cages every 2 h. Compound E3, suspended in 0.5% CMC-Na at an appropriate concentration, was administered intragastric gavage to the mice or rats (0.16, 0.8, 4, or 20 mg/kg). Vehicle control comprised 0.5% (w/v) CMC-Na. Urinary parameters were determined through the following: volume: Gravimetric analysis (1 g/mL density assumption); osmolality: freezing-point osmometry (Micro-osmometer, […] Associates, Norwood, MA, USA); and urea: diacetyl oxime colorimetry (QuantiChrom® kit, Elabscience, Wuhan, China). In long-term (7 d) diuretic activity experiments, male WT mice, UT-B^-/- mice, UT-A1^-/- mice, and SD rats were acclimatized in metabolic cages (Ugo Basile, Comerio, VA, Italy) for 3 d. Food and water were provided ad libitum throughout the experiment. E3 was suspended in 0.5% CMC-Na and administered at a dose of 4 or 20 mg/kg by intragastric gavage. Urine was collected by metabolic cages every 24 h. Body weight was measured daily. At 4 h after the final administration, a blood sample was obtained by heart puncture. Inner medulla and outer medulla tissue homogenates were prepared, and the supernatant after centrifugation was analyzed for solute concentration and osmolality. Urinary osmolality and urea concentration were measured as above. Serum Na^+, K^+, and Cl^- were measured in a clinical chemistry laboratory, while serum creatinine, ALT, and AST were measured through specific reagent kits (NJJC Bio, Nanjing, China).

For series [4], the target named is T1, rat UT-B (Rattus norvegicus, UniProt P97689).
T1 construct: expressed in transfected cells
T1 sequence (P97689 1-384): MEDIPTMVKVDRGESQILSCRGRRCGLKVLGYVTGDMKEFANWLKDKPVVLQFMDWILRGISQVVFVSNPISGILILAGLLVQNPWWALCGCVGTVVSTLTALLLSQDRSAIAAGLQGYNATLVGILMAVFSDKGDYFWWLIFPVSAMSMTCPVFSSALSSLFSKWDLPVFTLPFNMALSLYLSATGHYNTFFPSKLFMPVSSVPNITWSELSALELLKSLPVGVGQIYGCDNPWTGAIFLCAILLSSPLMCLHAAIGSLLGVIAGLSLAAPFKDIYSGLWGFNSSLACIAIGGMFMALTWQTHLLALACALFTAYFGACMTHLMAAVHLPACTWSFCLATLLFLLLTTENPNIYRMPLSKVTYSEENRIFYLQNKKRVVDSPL
Nature of the series: Transwell assay of UT-B inhibition in UT-B-MDCK cells. As to conditions: read-out: IC50 against UT-B-mediated urea permeability. It counts as cell-based. How it is done:
MDCK cells stably expressing rat UT-A1 or UT-B were cultured in DMEM supplemented with 10% FBS, and the mRNA levels of UT-A1 and UT-B were measured in our previous research. Urea flux was assessed according to previously established methods. MDCK cells (2 × 10^5 cells/cm^2) were grown on 12 mm collagen-coated Costar Transwell inserts (0.4 μm pore size, Corning) for 4 d at 37 °C in the presence of 5% CO2. Once the cells on the apical side formed a tight monolayer (transepithelial resistance 1 kΩ/cm^2), PBS (pH = 7.4, containing 10 μmol/L forskolin) with E3 or DMSO was added to the top (0.25 mL) and bottom (1 mL) compartments, and the cultures were incubated in the absence of urea for 30 min at 37 °C. As UT-B is located in the plasma membrane while UT-A1 resides in the cytoplasm, forskolin was used to stimulate the translocation of UT-A1 from the cytoplasm to the membrane for urea transport. Subsequently, the solution in the bottom compartment was replaced with PBS (pH 7.4, containing 10 μmol/L forskolin and E3 or DMSO) supplemented with 15 mmol/L urea. Apical fluid samples (5 μL) were collected at 0, 1, 3, 5, 10, 15, 20, 30, 40, 50, and 60 min. The samples were subjected to an assay for urea (Urea Colorimetric Assay Kit (Diacetyl Oxime Method), Elabscience, Wuhan, China) according to the kit procedure. Then, the inhibition rate was calculated as described previously.

[5] abbreviates: UT-B−/− mice, long-term treatment.
Setting [6] is: mice, oral 20 mg/kg, consecutive administrations.

`CC(=O)c1ccc(C(=O)Nc2cccc(NS(=O)(=O)c3ccccc3)c2)o1` [Compound E3, 5-acetyl-N-(3-(phenylsulfonamido)phenyl)furan-2-carboxamide]: the amount remaining at 1 μmol/L in series [1] was 45.3%. Further, the “remaining amount, mouse liver microsomes” value in series [2] is recorded as 36.8%. Besides, the diuretic effect result in series [3] (UT-A1−/− mice, long-term treatment) was “no significant diuretic effect”. In series [3] (setting [5]), the urine osmolality entry was “decreased” and the urine output result was “increased”. Besides, in series [3] (setting [6]), the “excretion of non-urea solutes” value is recorded as “no significant difference”, the urine osmolality entry is given as “significantly decreased”, the urine output result is given as “significantly increased” and the urine urea concentration result is “significantly decreased”. Also, the IC50 in series [4] was found to be 58 nM.
